Assay results published in patent US20250127933A1, “Method of verifying effectiveness and stability of linker in Drug Delivery system and Structure therefor” (INDUSTRY-ACADEMIC COOPERATION FOUNDATION OF SUNCHON …, priority 2023, published 2025).

Legend:
[1] = system: Leucine aminopeptidase (LAP); experiment: Enzymatic kinetic study of LAP reaction of activatable fluorescent probes; format: biochemical, porcine
Procedure: All spectroscopic readings were measured with BioTek Synergy™ H1 spectrophotometer, using 96 well microplate. A parent stock solution of probes was dissolved in DMSO to obtain 10 mM. Leucine aminopeptidase was dissolved in deionized water to obtain 1 mg/mL. All spectra measurements were carried out in PBS buffer solution (PBS buffer, 10 mM, pH 7.4, 37° C. The final volume in 96 well microplate was adjusted to 200 μL. RPMI 1640 was obtained from Thermo Scientific (Waltham, MA, USA). Bestatin hydrochloride (LAP inhibitor), DMSO and 2-mercaptoethanol were purchased from Sigma Aldrich (St. Louis, Mo, USA).
The kinetic study for LAP reaction was performed by incubation of 2 μg of LAP ([…]) with 1 μM probe in PBS buffer (10 mM, pH 7.4). The plate was incubated at 37° C. for 80 min with continuous shaking, and the emission spectra were recorded at the corresponding wavelength over time. A solution of LAP (2 μg/200 μL) was pretreated with bestatin (0, 1, 10, 50 and 100 μM) in PBS (10 mM, pH 7.4) at 37° C. for 30 min, and then 1 μM of probe was added. The mixture was incubated at 37° C., and the fluorescence was recorded on Synergy™ H1 using a 96-well microplate.
All reagents and solvents were obtained from commercial sources Sigma-Aldrich Chemical Co., Combi-Block, Tokyo Chemical Industries, Daejung Chemicals, and Alfa Aesar and used without purification. Anhydrous solvents were purchased from Sigma-Aldrich and used under dry nitrogen atmosphere. Ultrapure water was obtained from a water ultra-purification system. Completion of reaction was confirmed by thin layer chromatography (TLC) on Kiesegel 60F254 from Merck and all synthesized compounds were purified by flash column chromatography using ZEOprep 60 (40-63) […] silica gel from ZEOCHEM. ^1H and ^13C NMR spectra were measured on JEOL JNMECZ400s/L1 (400 MHZ) and CDCl3 or DMSO-d6 was used as the NMR solvents. The chemical shifts were quoted in parts per million (ppm) and the coupling constant (J) were reported in hertz unit (Hz). Chemical shifts (in ppm) were referenced to tetramethylsilane (δ=0 ppm) in CDCl3 as an internal standard. ^13C NMR spectra were reported in ppm referenced to the center line of the triplet at 77.0 ppm for CDCl3 or 39.5 ppm for DMSO-d6. All in vitro enzyme assays were performed by taking the absorbance and emission on Synergy™ H1 microplate reader from BioTek. Leucine aminopeptidase from porcine kidney and other enzymes were purchased from Sigma-Aldrich.

[2] = Ex vivo plasma stability in mice serum; format: in vitro ADME, C57BL/6 mice; details: 10 μM probe, 48 h
Procedure: Animal was treated strictly according to the guidelines for laboratory animal care and use issued by the Sunchon National University Institutional Animal Care and Use Committee (SCNU IACUC). Female C57/BL6 mice (7 weeks old), weighing about 17-20 g, were purchased from Orientbio (Orientbio Inc., Seongnam, Korea). Blood was collected from the posterior orbital plexus in normal mice and centrifuged (5000 rpm, 4° C., 5 minutes) to obtain serum. The stability study was performed by incubation of the fluorescent probe (10 μM) or rhodol fluorophore (0.1, 0.3, 1, 3 and 10 μM) with serum at 37° C. . . . The fluorescence was detected on Synergy™ H1 microplate reader.

[3] = system: Leucine aminopeptidase (LAP); experiment: Enzymatic kinetic study of LAP reaction of activatable fluorescent probes; format: biochemical, porcine; details: 1 μM probe; LAP 1, 5, 10, 20, 50, 100 μg/mL; PBS pH 7.4, 80 min, 37° C.
[4] = pH-dependent stability test; format: physicochemical; details: 1 μM probe, pH 2 to 12, 25° C.
Procedure: Thermal stability was evaluated by the incubation of 1 μM of the probe in PBS buffer (pH 7.4) at different temperatures ranging from 25 to 45° C. for 20 min and reading fluorescence at each temperature. The pH stability test was performed by the incubation with 1 μM probe in different pH buffers (2 to 13) at 25° C. and recording fluorescence at each pH.

[5] = biological target: T1, Leucine aminopeptidase (LAP) (Sus scrofa, UniProt P15145); experiment: Selectivity test against various bioanalytes; format: biochemical, porcine; details: 1 μM probe, 1 mM analytes or 1 U/mL enzymes, 0.05 U/mL LAP, PBS pH 7.4, 37° C., 1 h
T1 construct: purchased Sigma-Aldrich; host or cells: porcine kidney (tissue-derived enzyme)
T1 sequence (P15145 33-963 limits assumed): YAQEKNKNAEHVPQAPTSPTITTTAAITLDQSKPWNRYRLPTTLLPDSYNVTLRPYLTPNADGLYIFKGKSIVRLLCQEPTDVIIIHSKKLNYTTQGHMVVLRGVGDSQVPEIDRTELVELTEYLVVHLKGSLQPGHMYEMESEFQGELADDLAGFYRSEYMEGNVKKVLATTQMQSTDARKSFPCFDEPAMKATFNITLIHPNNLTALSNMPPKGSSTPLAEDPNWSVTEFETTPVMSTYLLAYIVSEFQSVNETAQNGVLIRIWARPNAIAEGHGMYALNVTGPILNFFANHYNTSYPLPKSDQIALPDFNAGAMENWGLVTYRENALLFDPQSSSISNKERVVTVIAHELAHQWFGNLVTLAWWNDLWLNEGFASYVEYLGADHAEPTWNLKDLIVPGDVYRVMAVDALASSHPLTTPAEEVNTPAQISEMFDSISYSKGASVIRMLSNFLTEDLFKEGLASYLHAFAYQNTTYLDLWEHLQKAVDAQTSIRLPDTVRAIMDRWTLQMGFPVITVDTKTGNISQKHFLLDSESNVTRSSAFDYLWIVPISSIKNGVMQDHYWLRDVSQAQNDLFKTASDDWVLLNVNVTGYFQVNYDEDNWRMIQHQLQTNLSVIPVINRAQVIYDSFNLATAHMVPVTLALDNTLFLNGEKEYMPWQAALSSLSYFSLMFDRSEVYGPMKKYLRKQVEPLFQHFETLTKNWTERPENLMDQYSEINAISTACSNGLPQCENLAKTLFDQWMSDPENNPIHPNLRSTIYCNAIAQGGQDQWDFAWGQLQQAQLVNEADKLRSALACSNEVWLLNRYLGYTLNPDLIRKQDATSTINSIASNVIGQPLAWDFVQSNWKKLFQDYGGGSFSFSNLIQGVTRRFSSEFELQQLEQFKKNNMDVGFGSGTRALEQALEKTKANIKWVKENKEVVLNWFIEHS
Procedure: 1 μM of probe was incubated with various bioanalytes containing 1 mM of NaOCl, H2O2, CaCl2), ZnCl2, KCl, NaCl, GSH, vitamin C, L-cystein, L-arginine, L-alanine and 1 U/mL of α-amylase, lysozyme, cellulase under 0.05 U/mL of LAP in PBS (10 mM, pH 7.4) at 37° C. for 1 h. The fluorescence was recorded on Synergy™ H1 microplate reader.

[6] = system: Leucine aminopeptidase (LAP); experiment: Competitive assay with LAP inhibitor bestatin; format: biochemical, porcine; details: bestatin pretreatment 0, 1, 10, 50, 100 μM; LAP 10 μg/mL; PBS pH 7.4, 37° C.
[7] = system: HepG2 cells; experiment: Kinetic and competitive study in HepG2 cells; format: cell-based; details: bestatin pretreatment 0, 10, 100 μM; Rhodo-P2 2.0 μM
Procedure: HepG2 cells (3×10^4 cells/well) were seeded in black-walled, transparent bottomed 96-well plates and cultured overnight. […] Kinetic study was performed in Synergy™ H1 microplate reader.

[8] = system: HepG2 cells; experiment: Confocal live cell imaging in HepG2 cells; format: cell-based; details: bestatin 500 μM pretreatment for 1 h, Rhodo-P1 1 μM
Procedure: HepG2 cells were maintained in DMEM medium containing 10% FBS and 1% antibiotics in the 15 μ-plate 96 well black (ibidi, Germany). HepG2 cells were incubated with or without 500 μM of bestatin, LAP inhibitor, for 1 h and subsequently treated with 1 μM of probe and Lyso-Tracker™ Red (Thermo Scientific, USA) for 1 h. The treated cells were washed three times with PBS and treated with 10 μM of DAPI (Thermo Scientific, USA) for 2 h. Imaged were collected by Leica confocal microscopy (TCS SP5 AOBS/Tandem, Leica, Germany). Lyso-Tracker™ Red was excited by 514 nm and detected by 570-620 nm, compounds were excited by 476 nm and detected by 505-545 nm, DAPI was excited by 405 nm and detected by 420-470 nm.

| SMILES | Fluorophore released in LAP reaction (% yield) ([1]; 1 μM probe, 10 μg/mL LAP, PBS pH 7.4, 37° C., 80 min) | Fluorophore released in LAP reaction (concentration) ([1]; 1 μM probe, 10 μg/mL LAP, PBS pH 7.4, 37° C., 80 min, calculated from fluorophore calibration curves) | LAP response / fluorophore release (in words) ([1]; LAP reaction, enzymatic study) | time-dependent fluorescence emission in serum ([2]; C57/BL6 mice serum) | % survival rate of probe in serum ([2]; C57BL/6 mice serum, 37° C.) | LAP response at various concentrations of LAP [3] | pH-dependent stability (fluorescence of fluorophore released by degradation) [4] | selectivity for LAP over other bioanalytes (fluorescence response) [5] | inhibition of LAP reaction of Rhodo-P2 (fluorescence emission) [6] | inhibition of Rhodo-P2 response in HepG2 cells [7] | effect of bestatin on probe fluorescence in confocal live cell imaging [8] |
| --- | --- | --- | --- | --- | --- | --- | --- | --- | --- | --- | --- |
| COc1ccc2c(c1)Oc1cc(NC(=O)OCc3ccc(NC(=O)[C@@H](N)CC(C)C)cc3)ccc1C21OC(=O)c2ccccc21 (stereo partly drawn) [Probe 4, 4-((S)-2-Amino-4-methylpentanamido)benzyl methoxy-3-oxo-3H-spiro[isobenzofuran-1,9′-xanthen]-6′-(3′-yl)carbamate] | 76.9% | ~0.769 µM | high yields of LAP reactions | fluorescence emission with a gentle increasing slope | 48% | nearly maximal responses at 10 μg/mL of LAP | no change in fluorescence emission according to the change in pH | most biocompatible in selectivity tests as well as pH and thermal stability tests |  |  |  |
| CC(C)C[C@H](NC(=O)[C@@H](O)[C@H](N)Cc1ccccc1)C(=O)O [bestatin] |  |  |  |  |  |  |  |  | reduced fluorescence emission by released fluorophores in a concentration-dependent manner | concentration-dependent inhibition of Rhodo-P2 | only showed blue staining by DAPI without green fluorescence from the LAP probe |
